29 compounds from patent EP0511845B1, “Pesticidal 1-aryl-5-(substituted alkylideneimino)-pyrazoles” (AVENTIS CROPSCIENCE S.A., priority 1991, dated 1992) can be followed below.

Common to all, as to assay type: in vivo
The subject of assay [1] is Schizaphis graminum. As to the kind of experiment: Greenbug on sorghum - systemic evaluation (soil drench). The conditions noted are these: systemic via root uptake, soil drench at soil concentrations of the protocols (10.0 or 20 ppm). How it is done:
(§1) For southern root-knot nematod and systemic tests for southern armyworm, cotton aphid, tobacco budworm and greenbug, a stock solution or suspension was prepared by adding 15 mg of the test compound to 250 mg of dimethylformamide, 1250 mg of acetone and 3 mg of the emulsifier blend referenced above. Water was then added to provide a test compound concentration of 150 ppm. When necessary, sonication was provided to insure complete dispersion. Cotton aphid and tobacco budworm (on cotton) and greenbug and tobacco budworm (on sorghum) - systemic evaluation: A 7.0 ml aliquot of the 150 ppm nematode test solution was applied to deliver the equivalent of 10.0 ppm soil concentration dose as a drench to 6 cm pots containing cotton and sorghum plants. The cotton plants were previously infested with cotton aphids about two days before treatment and greenbug one day before treatment. After holding the plants about three days, the plants were rated for aphid activity. Again at six days, the plants were rated for aphid activity and the cotton aphids and greenbugs were counted and mortality was assessed. Portions of the cotton and sorghum foliage were excised, placed in separate plastic containers, and infested with second instar larvae of tobacco budworm. The potted plants were dipped in sulfotepp to kill the remaining aphids and returned to the greenhouse for regrowth. Thirteen days after treatment, the remaining foliage was excised and fed to tobacco budworms. Mortality was assessed six days after infestation. Cotton aphid and southern armyworm (on cotton) and greenbug and southern armyworm (on sorghum) - systemic evaluation: A stock solution or suspension was prepared to deliver 5 ml of a 20 ppm soil concentration dose (and subsequent dilutions) as a drench to 6 cm pots containing cotton and sorghum plants. The cotton plants were previously infested with cotton aphids about two days before treatment and greenbug one day before treatment. After holding the plants about three days, the plants were rated for aphid activity. Again at six days, the plants were rated for aphid activity and the cotton aphids and greenbugs were counted and mortality was assessed. Portions of the cotton and sorghum foliage were excised, placed in separate plastic containers, and infested with second instar larvae of southern armyworms. The potted plants were dipped in sulfotepp to kill the remaining aphids and returned to the greenhouse for regrowth. Thirteen days after treatment the remaining foliage was excised and fed to southern armyworm. Mortality was assessed six days after infestation.

Assay [2] relates to Spodoptera eridania. As to the kind of experiment: Southern armyworm on sorghum - systemic evaluation (soil drench). Particulars: systemic via root uptake; for control of southern armyworm at thirteen days (sorghum): on sorghum; for control of southern armyworm after six days on sorghum: 20 ppm soil concentration dose (and subsequent dilutions). How it is done:
(§2) Cotton aphid and southern armyworm (on cotton) and greenbug and southern armyworm (on sorghum) - systemic evaluation: A stock solution or suspension was prepared to deliver 5 ml of a 20 ppm soil concentration dose (and subsequent dilutions) as a drench to 6 cm pots containing cotton and sorghum plants. The cotton plants were previously infested with cotton aphids about two days before treatment and greenbug one day before treatment. After holding the plants about three days, the plants were rated for aphid activity. Again at six days, the plants were rated for aphid activity and the cotton aphids and greenbugs were counted and mortality was assessed. Portions of the cotton and sorghum foliage were excised, placed in separate plastic containers, and infested with second instar larvae of southern armyworms. The potted plants were dipped in sulfotepp to kill the remaining aphids and returned to the greenhouse for regrowth. Thirteen days after treatment the remaining foliage was excised and fed to southern armyworm. Mortality was assessed six days after infestation.

Assay [3] has as its system Heliothis virescens. As to the kind of experiment: Tobacco budworm - contact evaluation (topical application). The conditions noted are these: topical or contact tests; application dose of 63 µg/g body weight. Here is the method:
For tobacco budworm contact tests, a stock solution was prepared by dissolving the compound in acetone and then further diluted to provide the required serial dilution concentrations.
Tobacco budworm - contact evaluation: The following topical application method provides an assessment of contact toxicity of a compound to tobacco budworm larvae The test compound solution at sequential two-fold dilution concentrations from 10 down to 0.16 µg/µl was applied by a microinjector in repli cated 1 µl portions to the dorsum of approximately 20 mg tobacco budworm larvae. This is equivalent to applied doses of 500 down to 8 µg/g body weight. An acetone treated control, without any test compounds, as also applied. A treated control with a commercial technical compound, cypermethrin or thiodicarb, also in acetone was used as a standard. The treated larvae were placed, individually, in separate plastic petri dishes containing an untreated cotton leaf and a moist dental wick. The treated larvae were maintained at about 27°C and 50% relative humidity. The percent mortality was rated 1 and 4 days after treatment.

Assay [4] has as its system Spodoptera eridania. As to the kind of experiment: Southern armyworm on cotton - systemic evaluation (soil drench). Particulars: systemic via root uptake; for control of southern armyworm at thirteen days: plant not repeated, follows the cotton clause; for control of southern armyworm at six days on cotton: 20 ppm soil concentration dose (and subsequent dilutions). How it is done: as §2

Assay [5] relates to Aphis gossypii. As to the kind of experiment: Cotton aphid on cotton - systemic evaluation (soil drench). Particulars: systemic via root uptake, soil drench at soil concentrations of the protocols (10.0 or 20 ppm). How it is done: as §1
Assay [6] concerns Heliothis virescens. The assay is described as follows: Tobacco budworm on sorghum - systemic evaluation (soil drench). The conditions noted are these: systemic via root uptake, 10.0 ppm soil concentration. Here is the method: For southern root-knot nematod and systemic tests for southern armyworm, cotton aphid, tobacco budworm and greenbug, a stock solution or suspension was prepared by adding 15 mg of the test compound to 250 mg of dimethylformamide, 1250 mg of acetone and 3 mg of the emulsifier blend referenced above. Water was then added to provide a test compound concentration of 150 ppm. When necessary, sonication was provided to insure complete dispersion. Cotton aphid and tobacco budworm (on cotton) and greenbug and tobacco budworm (on sorghum) - systemic evaluation: A 7.0 ml aliquot of the 150 ppm nematode test solution was applied to deliver the equivalent of 10.0 ppm soil concentration dose as a drench to 6 cm pots containing cotton and sorghum plants. The cotton plants were previously infested with cotton aphids about two days before treatment and greenbug one day before treatment. After holding the plants about three days, the plants were rated for aphid activity. Again at six days, the plants were rated for aphid activity and the cotton aphids and greenbugs were counted and mortality was assessed. Portions of the cotton and sorghum foliage were excised, placed in separate plastic containers, and infested with second instar larvae of tobacco budworm. The potted plants were dipped in sulfotepp to kill the remaining aphids and returned to the greenhouse for regrowth. Thirteen days after treatment, the remaining foliage was excised and fed to tobacco budworms. Mortality was assessed six days after infestation.

In the case of `COc1cc(C=Nc2c(SC(F)(F)F)c(C#N)nn2-c2c(Cl)cc(C(F)(F)F)cc2Cl)cc([N+](=O)[O-])c1O` [compound 74], the “control of greenbug after six days on sorghum” value (“control of greenbug” below) in assay [1] is listed as 30-100%.
For the compound `Cc1cc(C=Nc2c(S(=O)(=O)C(F)(F)F)c(C#N)nn2-c2c(Cl)cc(C(F)(F)F)cc2Cl)ccc1O` [compound 66], the “control of southern armyworm at thirteen days (sorghum)” value (“control … (sorghum)” for short) in assay [2] is listed as 70-100%.
As to `COc1cc(C=Nc2c(SC(F)(F)F)c(C#N)nn2-c2c(Cl)cc(C(F)(F)F)cc2Cl)cc(Br)c1O` [compound 42], the “control of tobacco budworm (TBW)” value in assay [3] was 50-100%.
Turning to `COc1cc(C=Nc2c(SC)c(C#N)nn2-c2c(Cl)cc(C(F)(F)F)cc2Cl)ccc1O` [compound 110], in assay [4], the “control of southern armyworm at thirteen days” value is recorded as 30-100%. The “control … (sorghum)” value in assay [2] is 70-100%. The “control of cotton aphid after six days on cotton” value (shortened to “control of cotton aphid”) in assay [5] was 30-100%. Moreover, in assay [1], the “control of greenbug” value is 30-100%.
Consider `COc1ccccc1C=Nc1c(SC(F)(F)F)c(C#N)nn1-c1c(Cl)cc(C(F)(F)F)cc1Cl` [compound 113], for which, in assay [4], the “control of southern armyworm at six days on cotton” value (“control … at six days on cotton” for short) is listed as 30-100%.
For the compound `COc1cc(C=Nc2c(SC(F)(F)F)c(C#N)nn2-c2c(Cl)cc(C(F)(F)F)cc2Cl)ccc1OC(C)=O` [compound 69], the “control … at six days on cotton” value in assay [4] is listed as 30-100%. Also, the “control of southern armyworm after six days on sorghum” value in assay [2] is 30-100%. For the same compound, in assay [3], the “control of tobacco budworm (TBW)” value is reported as 50-100%.
In the case of `N#Cc1nn(-c2c(Cl)cc(C(F)(F)F)cc2Cl)c(N=Cc2ccc(O)c(Br)c2)c1SC(F)(F)F` [compound 100], in assay [2], the “control of southern armyworm after six days on sorghum” value is reported as 30-100%.
`COc1cc(C=Nc2c(SC(F)(F)F)c(C#N)nn2-c2c(Cl)cc(C(F)(F)F)cc2Cl)cc(O)c1OC` [compound 59]: the “control of tobacco budworm (TBW)” value in assay [3] is 50-100%.
For the compound `CCN(CC)c1ccc(C=Nc2c(SC(F)(F)F)c(C#N)nn2-c2c(Cl)cc(C(F)(F)F)cc2Cl)c(O)c1` [compound 117], in assay [2], the “control … (sorghum)” value was 70-100%.
Turning to `COc1ccc(C=Nc2c(SC(F)(F)F)c(C#N)nn2-c2c(Cl)cc(C(F)(F)F)cc2Cl)cc1` [compound 21], the “control of greenbug” value in assay [1] is 30-100%.
As to `COc1ccc(C=Nc2c(S(=O)(=O)C(F)(F)F)c(C#N)nn2-c2c(Cl)cc(C(F)(F)F)cc2Cl)cc1O` [compound 65], the “control of southern armyworm at thirteen days” value in assay [4] is 30-100%. Further, the “control … (sorghum)” value in assay [2] was 70-100%.
For `COc1cc(C=Nc2c(SC(F)(F)F)c(C#N)nn2-c2ncc(C(F)(F)F)cc2Cl)ccc1O` [compound 87], the “control of greenbug” value in assay [1] is 30-100%.
`CC(C)(C)c1cc(C=Nc2c(SC(F)(F)F)c(C#N)nn2-c2c(Cl)cc(C(F)(F)F)cc2Cl)cc(C(C)(C)C)c1O` [compound 64]: the “control of southern armyworm at thirteen days” value in assay [4] was 30-100%.
Consider `COc1cc(O)c(C=Nc2c(S(=O)(=O)C(F)(F)F)c(C#N)nn2-c2c(Cl)cc(C(F)(F)F)cc2Cl)c(OC)c1` [compound 72], for which, in assay [2], the “control of southern armyworm after six days on sorghum” value is given as 30-100%.
Turning to `N#Cc1nn(-c2c(Cl)cc(C(F)(F)F)cc2Cl)c(N=Cc2ccc(O)cc2)c1SC(F)(F)F` [compound 4, 1-(2,6-dichloro-4-trifluoromethylphenyl]-3-cyano-4-trifluoromethylsulfenyl-5-[(4-hydroxyphenyl]methylideneimino]pyrazole], the “control of greenbug” value in assay [1] is 30-100%.
`COc1cc(C=Nc2c(SC(F)(F)F)c(C#N)nn2-c2c(Cl)cc(C(F)(F)F)cc2Cl)ccc1OCc1ccccc1` [compound 120]: the “control … at six days on cotton” value in assay [4] was 30-100%.
As to `COc1cc(C=Nc2c(SC(F)(F)F)c(C#N)nn2-c2c(Cl)cc(C(F)(F)F)cc2Cl)cc(OC)c1O` [compound 13, 1-(2,6-dichloro-4-trifluoromethylphenyl)-3-cyano-4-trifluoromethylsulfenyl-5-[(3,5-dimethoxy-4-hydroxyphenyl)methylideneimino]pyrazole], in assay [5], the “control of cotton aphid” value is on record as 30-100%. In addition, in assay [3], the “control of tobacco budworm (TBW)” value is listed as 50-100%.
In the case of `N#Cc1nn(-c2c(Cl)cc(C(F)(F)F)cc2Cl)c(N=Cc2cc(O)c(O)c(Br)c2)c1SC(F)(F)F` [compound 93], in assay [1], the “control of greenbug” value is 30-100%.
On to `N#Cc1nn(-c2c(Cl)cc(C(F)(F)F)cc2Cl)c(N=Cc2cc[n+]([O-])cc2)c1S(=O)(=O)C(F)(F)F` [compound 68], for which the “control of southern armyworm at thirteen days” value in assay [4] was 30-100%.
In the case of `N#Cc1nn(-c2c(Cl)cc(C(F)(F)F)cc2Cl)c(N=Cc2ncc[nH]2)c1SC(F)(F)F` [compound 115], in assay [2], the “control of southern armyworm after six days on sorghum” value is 30-100%.
On to `COc1ccc(C=Nc2c(SC(F)(F)Cl)c(C#N)nn2-c2c(Cl)cc(C(F)(F)F)cc2Cl)cc1O` [compound 81], for which the “control of tobacco budworm (TBW)” value in assay [3] was 50-100%.
`CCCCCCCC(=O)Oc1ccc(C=Nc2c(SC(F)(F)F)c(C#N)nn2-c2c(Cl)cc(C(F)(F)F)cc2Cl)cc1OC` [compound 121]: the “control of southern armyworm after six days on sorghum” value in assay [2] is reported as 30-100%.
On to `N#Cc1nn(-c2c(Cl)cc(C(F)(F)F)cc2Cl)c(N=Cc2ccco2)c1SC(F)(F)F` [compound 20], for which the “control of tobacco budworm after six days on sorghum” value in assay [6] came out at 100%. Besides, the “control of greenbug” value in assay [1] is 30-100%.
Turning to `N#Cc1nn(-c2c(Cl)cc(C(F)(F)F)cc2Cl)c(N=Cc2cc(C(F)(F)F)cc(C(F)(F)F)c2)c1SC(F)(F)F` [compound 112], the “control of cotton aphid” value in assay [5] was 30-100%. The “control of greenbug” value in assay [1] was 30-100%.
With `CSc1c(C#N)nn(-c2c(Cl)cc(C(F)(F)F)cc2Cl)c1N=Cc1ccc(O)cc1` [compound 111], the “control of cotton aphid” value in assay [5] is reported as 30-100%. Also, the “control of greenbug” value in assay [1] was 30-100%.
On to `COc1cccc(C=Nc2c(SC(F)(F)F)c(C#N)nn2-c2c(Cl)cc(C(F)(F)F)cc2Cl)c1O` [compound 50], for which the “control of tobacco budworm (TBW)” value in assay [3] is listed as 50-100%.
The same measure, in the same setting: the same measure for `N#Cc1cccc(C=Nc2c(SC(F)(F)F)c(C#N)nn2-c2c(Cl)cc(C(F)(F)F)cc2Cl)c1` [compound 116]: 50-100%; for `CCOc1cc(C=Nc2c(S(=O)(=O)C(F)(F)F)c(C#N)nn2-c2c(Cl)cc(C(F)(F)F)cc2Cl)ccc1O` [compound 61]: 50-100%; for `Cc1cc(C=Nc2c(SC(F)(F)Cl)c(C#N)nn2-c2c(Cl)cc(C(F)(F)F)cc2Cl)cc(C)c1O` [compound 80]: 50-100%.
